Test results: patent publication US20240391958A1, “KEANUMYCINS AND USES THEREOF IN MEDICINE AND PLANT PROTECTION” (Leibniz-Institut für Naturstoff-Forschung und …, priority 2023, published 2024)
Where a SMILES comes first, the peptide text is derived from it. Bridges are numbered along the chain shown (N, C = ends). [ ]: non-standard residue; d: D form. The star is where a group is joined. X1 = CCCCCCCCCCCC[C@@H](O)[C@@H](O)CC(=O)*; Asp(3S-OH) = N[C@H](C(=O)O)[C@H](O)C(=O)O; Thr(4-Cl) = N[C@H](C(=O)O)[C@H](O)CCl; aThr = C[C@H](O)[C@H](N)C(=O)O; d(hSer) = N[C@H](CCO)C(=O)O; dDab = NCC[C@@H](N)C(=O)O; Dab = NCC[C@H](N)C(=O)O; Dhb = C/C=C(\N)C(=O)O

Tested on: HAC1 mRNA
Assay: Splicing of HAC1 mRNA (Ire1-Hac1 UPR pathway)
Format: cell-based, Candida albicans
Conditions: compared to positive tunicamycin control
Excerpt: To see if keanumycin A triggers the same canonical Ire1-Hac1 UPR pathway, the inventors looked at the splicing of HAC1 mRNA, which is regulated by Ire1. […] Since no other specific signaling pathway stood out, the inventors screened homozygous knockout mutants for significant growth differences in the absence and presence of a sublethal concentration of the NRLP. […] PLB5 is an important gene for phospholipid homeostasis and PMT6 codes for a transmembrane protein mannosyltransferase, which is involved in the construction of the outmost mannan cell wall layer in C. albicans.

C/C=C1\NC(=O)[C@H]([C@H](C)O)NC(=O)[C@H](CCN)NC(=O)[C@@H](CCO)NC(=O)CNC(=O)[C@@H](CCN)NC(=O)[C@@H](NC(=O)C[C@H](O)[C@H](O)CCCCCCCCCCCC)COC(=O)[C@H]([C@H](O)CCl)NC(=O)[C@H]([C@H](O)C(=O)O)NC1=O [Keanumycin A, keanumycin A] (X1-S[dDab]G[d(hSer)][Dab][aThr][Dhb][Asp(3S-OH)][Thr(4-Cl)]; ester 1-C)
splicing of HAC1 mRNA: could not observe splicing in HAC1 mRNA
